Test results taken from patent US8987272B2, “Compounds and method for treatment of HIV” (priority 2010, dated 2015).
Several values for one entry are separate records, joined by “and”; a condition that tells them apart may be missing. Equal values may be shown once. Entries after “also recorded” stand apart in the source; their conditions may differ. Read-outs that look alike come from different tables or passages of the source.

Assays:
[1] = biological target: T1, HIV-1 integrase (Human immunodeficiency virus type 1 group M subtype B (isolate HXB2) (HIV-1), UniProt P04585); experiment: biochemical; assay type: biochemical
Method: The effect of each compound on HIV integrase activity was assayed using the “HIV-1 Integrase Assay Kit” version 2.0, catalogue number EZ-1700 obtained from XpressBio Life Science Products. Immediately prior to the start of the assay, both compounds were dissolved in dimethyl sulfoxide (DMSO) and used immediately in the HIV integration assay. The assay was performed according to the instructions listed by the manufacturer (XpressBio Life Science Products, Maryland, USA). In brief, the required streptavidin-coated strip wells were coated with DS oligo and placed overnight at 4° C. The plates were then incubated with integrase and followed by the addition of test articles at the desired concentration. The plates were developed using the supplied HRP antibody and TMB peroxidase substrate as per the manufacturer's instructions. The reactions were stopped with TMB stop solution and immediately read (<10 min) using a VICTOR XXX. The absorbance of each well was read at 450 nm for 0.5 sec. All measurements were performed in triplicate.
The background absorbance was subtracted from the raw data of each sample to yield “background corrected” absorbance values. […] The CV=% SD for the 100% integrase alone control.
To determine the IC50 of each test compound, non-linear regression analysis was used.
Because the top and the bottom plateaus can be defined by solid control data (eg. sodium azide), the data was fitted to a normalized model in order to calculate the IC50. […] Since 6 compound concentrations were tested in triplicate, the data was analyzed using the standard slope model, in contrast with the variable slope model.

[2] = biological target: T1, HIV-1 integrase; experiment: biochemical; assay type: biochemical; remark: listed apart in the source
Method: The capacity of the compound to inhibit HIV integrase in a cell-free system was assessed. An HIV Integrase Assay System (XpressBio Life Science Products; Thurmont, Md., www.expressbio.com) was used. In brief, double-stranded HIV-1 donor substrate (the U5 long terminal repeat) was immobilized in 96-well plates. Recombinant HIV-1 integrase protein was added, along with an oligonucleotide target substrate. The integrase cleaves the donor substrate and integrates it into the target substrate, which is now in solution phase—the integrated product (the amount is indicative of integrase activity) was detected using an antibody specific for the recombinant target/donor sequence. Inhibitors added along with the donor substrate reduced the amount of product. […] The capacity of a compound known to inhibit HIV integrase activity (NaN3) was assessed as a positive control. All assessed inhibitions were compared to controls treated with vehicle only (compounds dissolved in 100% DMSO, then diluted in buffer to a maximum DMSO concentration of 0.1% DMSO).
However, it should be kept in mind that indirect HIV integrase inhibition (which might possibly occur in living cells) will not be detected.
COTI-HIV1Doxo was assayed for HIV-1 integrase activity, as described above. All measurements were made in quadruplicate (n=4) to allow statistical analysis of significance.

[3] = all concentrations tested (lowest 1 nM)

With `Cn1cnc(-c2nnc(Cc3ccc(F)cc3)o2)c(O)/c1=N\O` [COTI-HIV1DOxime, 6-[5-(4-fluoro-benzyl)-[1,3,4]oxadiazol-2-yl]-5-hydroxy-3-methyl-3H-pyrimidin-4-one oxime] the IC50 [1] was 58.7 µM and the “inhibition of HIV-1 integrase” value [1, 3] was “significantly inhibited HIV-1 integrase; also recorded: significantly inhibit HIV-1 integrase activity”.
With `Cn1cnc(-c2nnc(Cc3ccc(F)cc3)o2)c(O)c1=O` [COTI-HIV1Doxo, 6-[5-(4-Fluoro-benzyl)-[1,3,4]oxadiazol-2-yl]-5-hydroxy-3-methyl-3H pyrimidin-4-one] the IC50 [2] was ~10 µM, the “effect on HIV-1 integrase activity” value ([2]; 1 nM, listed as COTI-HIV-1 ketone derivative) was “enhanced HIV-1 integrase activity; also recorded: slightly but significantly enhanced HIV-1 integrase activity” and the “effect on HIV-1 integrase activity” value ([2]; 100 nM) was “inhibited HIV-1 integrase; also recorded: significantly reduce HIV-1 integrase activity”. For the same molecule, the “effect on HIV-1 integrase activity” value ([2]; all higher tested concentrations (up to 100 μM)) was “significantly decreased HIV-1 integrase activity” and the “complete inhibition of integrase activity” value ([2]; up to 100 μM) was “not observed”.
For `Cn1nc(-c2nnc(Cc3ccc(F)cc3)o2)/c(=N\O)c2ncccc21` [COTI-HIV1Oxime], the IC50 [1] was 23.9 µM, the “percent of the total control activity” value ([1]; at 100 μM) was 34.82% and the “reduction in HIV-1 integrase activity” value ([1]; at 100 μM) was “At least 50%”. For the same molecule, the “inhibition of HIV-1 integrase” value ([1]; at 100 μM, listed as COTI-HIV28233) was “significantly inhibited HIV-1 integrase; also recorded: significantly reduce activity” and the “inhibition of HIV-1 integrase activity” value ([1]; at low concentrations) was “modestly inhibit HIV-1 integrase activity”.
For `Cn1nc(C(=O)NCc2ccc(F)cc2)/c(=N\O)c2ncccc21` [COTI-HIV28236], the IC50 [1] was 14 µM, the “inhibition of HIV-1 integrase” value [1, 3] was “significantly inhibited HIV-1 integrase; also recorded: significantly inhibit HIV-1 integrase activity” and the “reduction in HIV-1 integrase activity” value ([1]; at 100 μM) was “At least 50%”.
`[N-]=[N+]=[N-].[Na+]` [sodium azide, reference compound] was tested, and the “effect of positive control on HIV-1 integrase activity” value ([2]; 1.0% or 3.3%) was “effectively decreased HIV-1 integrase activity”, the “effect of positive control on HIV-1 integrase activity” value ([1]; positive control) was “effectively decrease HIV-1 integrase activity” and the “calculated IC50 of sodium azide controls” value ([1]; two controls run in parallel) was 0.12% and 0.14%. It also gave a percent control activity ([1]; with 10% sodium azide) of 0%.
